From US12391641B2, “Prostaglandin EP4 receptor antagonist compounds” (NXERA PHARMA UK LIMITED, priority 2019, dated 2025)

Target: T1, Human prostaglandin E2 receptor 4 (EP4) (Homo sapiens, UniProt P35408)
T1 construct: expressed in transfected cells; host or cells: HEK293 cells transduced with EP4 BacMam virus
Test: cAMP Gs Functional Assay (HTRF cAMP dynamic-2), antagonism of PGE2
Assay type: cell-based
Conditions: HEK293 cells transfected with EP4 BacMam virus; PGE2 challenge at EC80 (7 nM); pIC50 converted to functional pKb with a modified Cheng Prussoff equation; read-out: Human EP4 fpKb (converted)
Outline: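 HEK293 cells transiently expressing human EP4 via BacMam (36 h), preincubated with compound 30 min at 37 °C in DMEM + 0.5 mM IBMX, 5000 cells/well, then challenged with EC80 PGE2 (7 nM). cAMP read by HTRF; pIC50 converted to pKb by modified Cheng-Prusoff using agonist EC50 and challenge concentration.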

T1 sequence (P35408 whole entry): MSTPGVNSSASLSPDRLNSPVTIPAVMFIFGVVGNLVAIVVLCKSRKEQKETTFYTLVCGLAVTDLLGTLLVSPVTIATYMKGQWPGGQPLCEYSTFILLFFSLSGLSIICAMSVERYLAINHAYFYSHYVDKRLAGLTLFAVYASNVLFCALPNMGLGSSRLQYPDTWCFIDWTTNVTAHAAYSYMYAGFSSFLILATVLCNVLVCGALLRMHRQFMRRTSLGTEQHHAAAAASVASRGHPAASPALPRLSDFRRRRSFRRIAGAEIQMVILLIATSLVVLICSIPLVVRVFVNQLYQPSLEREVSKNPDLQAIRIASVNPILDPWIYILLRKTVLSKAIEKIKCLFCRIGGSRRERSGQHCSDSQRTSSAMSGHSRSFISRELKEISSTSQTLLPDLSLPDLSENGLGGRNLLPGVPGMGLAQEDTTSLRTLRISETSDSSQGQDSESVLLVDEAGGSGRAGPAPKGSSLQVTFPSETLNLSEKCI

Work on CC(C)[C@@H](OCc1ccc(C(F)(F)F)cc1)C(=O)NC1(c2ccc(C(=O)O)cc2)CC1 [Example 2, (R)-4-(1-(3-methyl-2-((4-(trifluoromethyl)benzyl)oxy)butanamido)cyclopropyl)benzoic acid] yielded a Ki of 0.891 nM.

Molecule CCS(=O)(=O)c1cccc(CO[C@@H](C(=O)NC2(c3ccc(C(=O)O)cc3)CC2)C(C)C)c1 [Example 56, (R)-4-(1-(2-((3-(ethylsulfonyl)benzyl)oxy)-3-methylbutanamido)cyclopropyl)benzoic acid] has a Ki of 7.24 nM.

With CC(C)[C@H](OCc1ccc(S(C)(=O)=O)cc1)C(=O)N[C@@H](C)c1ccc(C(=O)O)cc1 [Example 9, 4-((S)-1-((S)-3-methyl-2-((4-(methylsulfonyl)benzyl)oxy)butanamido)ethyl)benzoic acid] the Ki was > 195 nM.

With CC(C)C(OCc1cccc(F)c1)C(=O)N[C@@H](C)c1ccc(C(=O)O)cc1 (single isomer, unassigned) [Example 18] the Ki was 457 nM.

Molecule CC(C)[C@@H](OCc1cccc(OC(F)F)c1)C(=O)NC1(c2ccc(C(=O)O)cc2)CC1 [Example 52, (R)-4-(1-(2-((3-(difluoromethoxy)benzyl)oxy)-3-methylbutanamido)cyclopropyl)benzoic acid] has a Ki of 0.389 nM.

Molecule CC(C)[C@@H](OCc1ccc(C(F)F)cn1)C(=O)NC1(c2ccc(C(=O)O)cc2)CC1 [Example 88, (R)-4-(1-(2-((5-(difluoromethyl)pyridin-2-yl)methoxy)-3-methylbutanamido)cyclopropyl)benzoic acid] has a Ki of 11.7 nM.

CC(C)[C@@H](OCc1ccc(OC(F)F)cc1)C(=O)N[C@@H](C)c1ccc(C(=O)O)cc1 [Example 23, 4-((S)-1-((R)-2-((4-(difluoromethoxy)benzyl)oxy)-3-methylbutanamido)ethyl)benzoic acid] showed a Ki of 14.5 nM.

Molecule COCc1cccc(CO[C@@H](C(=O)NC2(c3ccc(C(=O)O)cc3)CC2)C(C)C)c1 [Example 60, (R)-4-(1-(2-((3-(methoxymethyl)benzyl)oxy)-3-methylbutanamido)cyclopropyl)benzoic acid] has a Ki of 1.91 nM.

Molecule CC(C)C(OCc1ccc(C2COC2)cc1)C(=O)N[C@@H](C)c1ccc(C(=O)O)cc1 (mixture of isomers) [Example 47, 4-((1S)-1-(3-methyl-2-((4-(oxetan-3-yl)benzyl)oxy)butanamido)ethyl)benzoic acid] has a Ki of 64.6 nM.

CC(C)[C@@H](OCc1ccc(C(F)F)cn1)C(=O)N[C@@H](C)c1ccc(C(=O)O)cc1 [Example 34, 4-((S)-1-((R)-2-((5-(difluoromethyl)pyridin-2-yl)methoxy)-3-methylbutanamido)ethyl)benzoic acid] gave a Ki of 20.9 nM.

In the case of CC(C)[C@@H](OCc1ccc(O)cc1)C(=O)N[C@@H](C)c1ccc(C(=O)O)cc1 [Example 41, 4-((S)-1-((R)-2-((4-hydroxybenzyl)oxy)-3-methylbutanamido)ethyl)benzoic acid], the Ki is reported as > 12900 nM.

CC(C)[C@@H](OCc1ccc(F)c(C2CC2)c1)C(=O)NC1(c2ccc(C(=O)O)cc2)CC1 [Example 89, (R)-4-(1-(2-((3-cyclopropyl-4-fluorobenzyl)oxy)-3-methylbutanamido)cyclopropyl)benzoic acid] showed a Ki of 6.76 nM.

CC(C)[C@@H](OCc1cccc(S(=O)(=O)C2CC2)c1)C(=O)N[C@@H](C)c1ccc(C(=O)O)cc1 [Example 90, 4-((S)-1-((R)-2-((3-(cyclopropylsulfonyl)benzyl)oxy)-3-methylbutanamido)ethyl)benzoic acid] showed a Ki of 29.5 nM.
